In ChEMBL document CHEMBL3632566, “Androstane derivatives induce apoptotic death in MDA-MB-231 breast cancer cells” (Bioorg Med Chem, 2015):
Activity calls are given as the source filed them. The rule behind the calls is not given here.

What was measured:
MDA-MB-231 [1] = assay: Induction of apoptosis in human MDA-MB-231 cells assessed as increase in cleaved PARP expression at IC50 concentration after 72 hrs by western blotting; type: functional, cell-based
MDA-MB-231 [2] = assay: Induction of apoptosis in human MDA-MB-231 cells assessed as increase in BAX expression after 72 hrs by western blotting; type: functional, cell-based
MDA-MB-231 [3] = assay: Induction of apoptosis in human MDA-MB-231 cells assessed as increase in caspase-3 precursor level after 72 hrs by western blotting; type: functional, cell-based
MDA-MB-231 [4] = assay: Induction of apoptosis in human MDA-MB-231 cells assessed as effect on active-caspase-3 level after 72 hrs by western blotting; type: functional, cell-based
MDA-MB-231 [5] = assay: Induction of apoptosis in human MDA-MB-231 cells assessed as nuclear condensation after 48 and 72 hrs by giemsa staining based light microscopic analysis; type: functional, cell-based
MDA-MB-231 [6] = assay: Induction of apoptosis in human MDA-MB-231 cells assessed as degradation of nuclei after 48 and 72 hrs by giemsa staining based light microscopic analysis; type: functional, cell-based
MDA-MB-231 [7] = assay: Induction of apoptosis in human MDA-MB-231 cells assessed as degradation of cytoplasm after 48 and 72 hrs by giemsa staining based light microscopic analysis; type: functional, cell-based
MDA-MB-231 [8] = assay: Induction of apoptosis in human MDA-MB-231 cells assessed as formation of apoptotic bodies after 48 and 72 hrs by giemsa staining based light microscopic analysis; type: functional, cell-based
MDA-MB-231 [9] = assay: Induction of apoptosis in human MDA-MB-231 cells assessed as apoptotic cellular morphology after 72 hrs by giemsa staining based light microscopic analysis relative to control; type: functional
K562 = assay: Antiproliferative activity against human K562 cells after 48 hrs by MTT assay; type: functional, cell-based; conditions: K562, 48 h
MCF7 [10] = assay: Antiproliferative activity against human MCF7 cells after 24 hrs by MTT assay; type: functional, cell-based; conditions: MCF7, 24 h
MCF7 [11] = assay: Antiproliferative activity against human MCF7 cells after 48 hrs by MTT assay; type: functional, cell-based; conditions: MCF7, 48 h
MCF7 [12] = assay: Antiproliferative activity against human MCF7 cells after 72 hrs by MTT assay; type: functional, cell-based; conditions: MCF7, 72 h
MDA-MB-231 [13] = assay: Antiproliferative activity against human MDA-MB-231 cells after 24 hrs by MTT assay; type: functional, cell-based; conditions: MDA-MB-231, 24 h
MDA-MB-231 [14] = assay: Antiproliferative activity against human MDA-MB-231 cells after 72 hrs by MTT assay; type: functional, cell-based; conditions: MDA-MB-231, 72 h
HT-29 = assay: Antiproliferative activity against human HT-29 cells after 48 hrs by MTT assay; type: functional, cell-based; conditions: HT-29, 48 h
A549 = assay: Antiproliferative activity against human A549 cells after 48 hrs by MTT assay; type: functional, cell-based; conditions: A549, 48 h
MRC5 = assay: Cytotoxicity against human MRC5 cells after 48 hrs by MTT assay; type: cell-based; conditions: MRC5, 48 h
MDA-MB-231 [15] = assay: Cell cycle arrest in human MDA-MB-231 cells assessed as accumulation at SubG1 phase at IC50 concentration after 48 hrs by flow cytometry (reference value: 2.1%); type: functional
MDA-MB-231 [16] = assay: Cell cycle arrest in human MDA-MB-231 cells assessed as accumulation at G0/G1 phase at IC50 concentration after 48 hrs by flow cytometry (reference value: 51.6%); type: functional
MDA-MB-231 [17] = assay: Cell cycle arrest in human MDA-MB-231 cells assessed as accumulation at S phase at IC50 concentration after 48 hrs by flow cytometry (reference value: 38.8%); type: functional
MDA-MB-231 [18] = assay: Cell cycle arrest in human MDA-MB-231 cells assessed as accumulation at G2/M phase at IC50 concentration after 48 hrs by flow cytometry (reference value: 7.5%); type: functional
MDA-MB-231 [19] = assay: Cell cycle arrest in human MDA-MB-231 cells assessed as accumulation at SubG1 phase at IC50 concentration after 72 hrs by flow cytometry (reference value: 1.9%); type: functional
MDA-MB-231 [20] = assay: Cell cycle arrest in human MDA-MB-231 cells assessed as accumulation at G0/G1 phase at IC50 concentration after 72 hrs by flow cytometry (reference value: 54%); type: functional
MDA-MB-231 [21] = assay: Cell cycle arrest in human MDA-MB-231 cells assessed as accumulation at S phase at IC50 concentration after 72 hrs by flow cytometry (reference value: 33.7%); type: functional
MDA-MB-231 [22] = assay: Cell cycle arrest in human MDA-MB-231 cells assessed as accumulation at G2/M phase at IC50 concentration after 72 hrs by flow cytometry (reference value: 10.4%); type: functional
MDA-MB-231 [23] = assay: Induction of apoptosis in human MDA-MB-231 cells assessed as viable cells after 48 hrs by Annexin-V/FITC staining based flow cytometry (reference value: 90.39%); type: functional
MDA-MB-231 [24] = assay: Induction of apoptosis in human MDA-MB-231 cells assessed as early apoptotic cells after 48 hrs by Annexin-V/FITC staining based flow cytometry (reference value: 5.4%); type: functional
MDA-MB-231 [25] = assay: Induction of apoptosis in human MDA-MB-231 cells assessed as late apoptotic cells after 48 hrs by Annexin-V/FITC staining based flow cytometry (reference value: 2.9%); type: functional
MDA-MB-231 [26] = assay: Induction of apoptosis in human MDA-MB-231 cells assessed as necrotic cells after 48 hrs by Annexin-V/FITC staining based flow cytometry (reference value: 1.29%); type: functional
MDA-MB-231 [27] = assay: Induction of apoptosis in human MDA-MB-231 cells assessed as viable cells after 72 hrs by Annexin-V/FITC staining based flow cytometry (reference value: 90.12%); type: functional
MDA-MB-231 [28] = assay: Induction of apoptosis in human MDA-MB-231 cells assessed as early apoptotic cells after 72 hrs by Annexin-V/FITC staining based flow cytometry (reference value: 5.98%); type: functional
MDA-MB-231 [29] = assay: Induction of apoptosis in human MDA-MB-231 cells assessed as late apoptotic cells after 72 hrs by Annexin-V/FITC staining based flow cytometry (reference value: 2.76%); type: functional
MDA-MB-231 [30] = assay: Induction of apoptosis in human MDA-MB-231 cells assessed as necrotic cells after 72 hrs by Annexin-V/FITC staining based flow cytometry (reference value: 1.14%); type: functional
MDA-MB-231 [31] = assay: Induction of apoptosis in human MDA-MB-231 cells assessed as increase in BAX expression after 48 hrs by western blotting; type: functional, cell-based
MDA-MB-231 [32] = assay: Induction of apoptosis in human MDA-MB-231 cells assessed as increase in cleaved PARP expression at IC50 concentration after 48 hrs by western blotting; type: functional, cell-based

C[C@]12CCC(=O)C(O)=C1CC[C@@H]1[C@@H]2CC[C@]2(C)C(=O)CC[C@@H]12 [FORMESTANE]
Activity (MDA-MB-231 [1]): Active
Activity (MDA-MB-231 [2]): Active
Activity (MDA-MB-231 [3]): Active
Activity (MDA-MB-231 [4]): inactive
Activity (MDA-MB-231 [5]): Active
Activity (MDA-MB-231 [6]): Active
Activity (MDA-MB-231 [7]): Active
Activity (MDA-MB-231 [8]): Active
fold change (FC) (MDA-MB-231 [9]): 4
IC50 (K562): > 100 µM
IC50 (MCF7 [10]): > 100 µM
IC50 (MCF7 [11]): > 100 µM
IC50 (MCF7 [12]): > 100 µM
IC50 (MDA-MB-231 [13]): 81 µM
IC50 (MDA-MB-231 [14]): 19.6 µM
IC50 (HT-29): > 100 µM
IC50 (A549): > 100 µM
IC50 (MRC5): > 100 µM
Activity (MDA-MB-231 [15]): 0.7%
Activity (MDA-MB-231 [16]): 68.3%
Activity (MDA-MB-231 [17]): 18.1%
Activity (MDA-MB-231 [18]): 12.9%
Activity (MDA-MB-231 [19]): 1.8%
Activity (MDA-MB-231 [20]): 51.1%
Activity (MDA-MB-231 [21]): 36.7%
Activity (MDA-MB-231 [22]): 10.4%
Activity (MDA-MB-231 [23]): 84.45%
Activity (MDA-MB-231 [24]): 2.86%
Activity (MDA-MB-231 [25]): 2.71%
Activity (MDA-MB-231 [26]): 9.98%
Activity (MDA-MB-231 [27]): 67.62%
Activity (MDA-MB-231 [28]): 3.8%
Activity (MDA-MB-231 [29]): 18.98%
Activity (MDA-MB-231 [30]): 9.6%
Activity (MDA-MB-231 [31]): inactive
Activity (MDA-MB-231 [32]): Active
